Laboratory results published in patent US6352958B1, “Cycloimido-substituted benzofused heterocyclic herbicides” (FMC Corporation, priority 1997, dated 2002).

Experiments:
Format in all cases: in vivo
[1] = system: field corn (Zea mays var. Pioneer 3732); assay: Preemergence herbicidal activity, corn; details: Rate of Application 0.3 Kg/Ha, examined after 12-17 days
[2] = system: common chickweed (Stellaria media); assay: Preemergence herbicidal activity, chickweed; details: Rate of Application 0.3 Kg/Ha, examined after 12-17 days
[3] = system: green foxtail (Setaria viridis); assay: Preemergence herbicidal activity, green foxtail; details: Rate of Application 0.3 Kg/Ha, examined after 12-17 days
[4] = system: wheat (Triticum aestivum var. Lew); assay: Postemergence herbicidal activity, wheat; details: rate of application 0.3 Kg/Ha, rated after 12-17 days
[5] = system: wheat (Triticum aestivum var. Lew); assay: Preemergence herbicidal activity, wheat; details: Rate of Application 0.3 Kg/Ha, examined after 12-17 days
[6] = system: green foxtail (Setaria viridis); assay: Postemergence herbicidal activity, green foxtail; details: rate of application 0.3 Kg/Ha, rated after 12-17 days
[7] = system: velvetleaf (Abutilon theophrasti); assay: Postemergence herbicidal activity, velvetleaf; details: rate of application 0.3 Kg/Ha, rated after 12-17 days
[8] = system: soybean (Glycine max var. Winchester); assay: Postemergence herbicidal activity, soybean; details: rate of application 0.3 Kg/Ha, rated after 12-17 days
[9] = system: blackgrass (Aloepecurus myosuroides); assay: Postemergence herbicidal activity, blackgrass; details: rate of application 0.3 Kg/Ha, rated after 12-17 days
[10] = system: morningglory (Ipomea lacunosa or Ipomea hederacea); assay: Postemergence herbicidal activity, morningglory; details: rate of application 0.3 Kg/Ha, rated after 12-17 days
[11] = system: field corn (Zea mays var. Pioneer 3732); assay: Postemergence herbicidal activity, corn; details: rate of application 0.3 Kg/Ha, rated after 12-17 days
[12] = system: Johnsongrass (Sorghum halepense); assay: Preemergence herbicidal activity, johnsongrass; details: Rate of Application 0.3 Kg/Ha, examined after 12-17 days
[13] = system: soybean (Glycine max var. Winchester); assay: Preemergence herbicidal activity, soybean; details: Rate of Application 0.3 Kg/Ha, examined after 12-17 days
[14] = system: blackgrass (Aloepecurus myosuroides); assay: Preemergence herbicidal activity, blackgrass; details: Rate of Application 0.3 Kg/Ha, examined after 12-17 days
[15] = system: Johnsongrass (Sorghum halepense); assay: Postemergence herbicidal activity, johnsongrass; details: rate of application 0.3 Kg/Ha, rated after 12-17 days
[16] = system: common chickweed (Stellaria media); assay: Postemergence herbicidal activity, chickweed; details: rate of application 0.3 Kg/Ha, rated after 12-17 days
[17] = system: morningglory (Ipomea lacunosa or Ipomea hederacea); assay: Preemergence herbicidal activity, morningglory; details: Rate of Application 0.3 Kg/Ha, examined after 12-17 days
[18] = system: velvetleaf (Abutilon theophrasti); assay: Preemergence herbicidal activity, velvetleaf; details: Rate of Application 0.3 Kg/Ha, examined after 12-17 days
[19] = system: common cocklebur (Xanthium strumarium L.); assay: Preemergence herbicidal activity, cocklebur; details: Rate of Application 0.3 Kg/Ha, examined after 12-17 days
[20] = system: common cocklebur (Xanthium strumarium L.); assay: Postemergence herbicidal activity, cocklebur; details: rate of application 0.3 Kg/Ha, rated after 12-17 days

Structure (SMILES)	PREEMERGENCE HERBICIDAL ACTIVITY (% CONTROL) CRN [1] [%]	PREEMERGENCE HERBICIDAL ACTIVITY (% CONTROL) STEME [2] [%]	PREEMERGENCE HERBICIDAL ACTIVITY (% CONTROL) SETVI [3] [%]	Postemergence herbicidal activity (% control) WHT [4] [%]	PREEMERGENCE HERBICIDAL ACTIVITY (% CONTROL) WHT [5] [%]	Postemergence herbicidal activity (% control) SETVI [6] [%]	Postemergence herbicidal activity (% control) ABUTH [7] [%]	Postemergence herbicidal activity (% control) SOY [8] [%]	Postemergence herbicidal activity (% control) ALOMY [9] [%]	Postemergence herbicidal activity (% control) IPOSS [10] [%]	Postemergence herbicidal activity (% control) CRN [11] [%]	PREEMERGENCE HERBICIDAL ACTIVITY (% CONTROL) SORHA [12] [%]	PREEMERGENCE HERBICIDAL ACTIVITY (% CONTROL) SOY [13] [%]	PREEMERGENCE HERBICIDAL ACTIVITY (% CONTROL) ALOMY [14] [%]	Postemergence herbicidal activity (% control) SORHA [15] [%]	Postemergence herbicidal activity (% control) STEME [16] [%]	PREEMERGENCE HERBICIDAL ACTIVITY (% CONTROL) IPOSS [17] [%]	PREEMERGENCE HERBICIDAL ACTIVITY (% CONTROL) ABUTH [18] [%]	PREEMERGENCE HERBICIDAL ACTIVITY (% CONTROL) XANPE [19] [%]	Postemergence herbicidal activity (% control) XANPE [20] [%]	further results
COCOC(C)(C)c1cc2c(Cl)cc(F)c(-n3c(=O)cc(C(F)(F)F)n(C)c3=O)c2o1 [Compound 252]	100	100	100	90	100	100	100	95	100	100	100	100	100	100	100	100	100	100	–	–	–
CNC(=O)c1cc2c(Cl)ccc(-n3c(=O)cc(C(F)(F)F)n(C)c3=O)c2o1 [Compound 270]	90	–	100	40	70	50	100	70	50	60	50	100	70	65	50	40	100	100	60	–	–
CON=Cc1cc2c(Cl)ccc(-n3c(=O)cc(C(F)(F)F)n(C)c3=O)c2o1 [Compound 259]	80	100	100	35	40	80	100	80	55	90	75	95	70	–	70	30	70	100	55	70	–
Cn1c(C(F)(F)F)cc(=O)n(-c2c(F)cc(Cl)c3[nH]c(C(F)(F)F)nc23)c1=O [Compound 365, 3-(4-CHLORO-6-FLUORO-2-TRIFLUOROMETHYLBENZIMIDAZOL-7-YL)-1-METHYL-6-TRIFLUOROMETHYL-2,4(1H,3H)-PYRIMIDINEDIONE]	–	–	–	–	–	–	–	–	–	–	–	–	–	–	–	–	–	–	–	–	inhibition at 300 g/ha ([1]; Zea mays, pre-emergence, read-out: PREEMERGENCE HERBICIDAL ACTIVITY (% CONTROL) CRN): 30%; inhibition at 300 g/ha ([2]; Stellaria media, pre-emergence, read-out: PREEMERGENCE HERBICIDAL ACTIVITY (% CONTROL) STEME): 100%; inhibition at 300 g/ha ([3]; Setaria viridis, pre-emergence, read-out: PREEMERGENCE HERBICIDAL ACTIVITY (% CONTROL) SETVI): 75%; inhibition at 300 g/ha ([4]; Triticum aestivum, post-emergence, read-out: Postemergence herbicidal activity (% control) WHT): 40%; inhibition at 300 g/ha ([5]; Triticum aestivum, pre-emergence, read-out: PREEMERGENCE HERBICIDAL ACTIVITY (% CONTROL) WHT): 30%; inhibition at 300 g/ha ([6]; Setaria viridis, post-emergence, read-out: Postemergence herbicidal activity (% control) SETVI): 80%; inhibition at 300 g/ha ([7]; Abutilon theophrasti, post-emergence, read-out: Postemergence herbicidal activity (% control) ABUTH): 100%; inhibition at 300 g/ha ([8]; Glycine max, post-emergence, read-out: Postemergence herbicidal activity (% control) SOY): 100%; inhibition at 300 g/ha ([9]; Alopecurus myosuroides, post-emergence, read-out: Postemergence herbicidal activity (% control) ALOMY): 70%; inhibition at 300 g/ha ([10]; Ipomoea, post-emergence, read-out: Postemergence herbicidal activity (% control) IPOSS): 100%; inhibition at 300 g/ha ([11]; Zea mays, post-emergence, read-out: Postemergence herbicidal activity (% control) CRN): 70%; inhibition at 300 g/ha ([12]; Sorghum halepense, pre-emergence, read-out: PREEMERGENCE HERBICIDAL ACTIVITY (% CONTROL) SORHA): 60%; inhibition at 300 g/ha ([14]; Alopecurus myosuroides, pre-emergence, read-out: PREEMERGENCE HERBICIDAL ACTIVITY (% CONTROL) ALOMY): 60%; inhibition at 300 g/ha ([15]; Sorghum halepense, post-emergence, read-out: Postemergence herbicidal activity (% control) SORHA): 30%; inhibition at 300 g/ha ([16]; Stellaria media, post-emergence, read-out: Postemergence herbicidal activity (% control) STEME): 100%; inhibition at 300 g/ha ([19]; Xanthium strumarium, pre-emergence, read-out: PREEMERGENCE HERBICIDAL ACTIVITY (% CONTROL) XANPE): 100%; inhibition at 300 g/ha ([17]; Ipomoea, pre-emergence, read-out: PREEMERGENCE HERBICIDAL ACTIVITY (% CONTROL) IPOSS): 100%; inhibition at 300 g/ha ([18]; Abutilon theophrasti, pre-emergence, read-out: PREEMERGENCE HERBICIDAL ACTIVITY (% CONTROL) ABUTH): 100%
Cc1cc2c(Cl)cc(F)c(-n3c(=O)cc(C(F)(F)F)n(C)c3=O)c2o1 [Compound 222]	90	100	100	70	70	100	100	100	100	100	90	100	100	–	100	100	100	100	100	100	–
Cn1c(C(F)(F)F)cc(=O)n(-c2ccc(Cl)c3cc(C=NO)oc23)c1=O [Compound 258]	75	0	40	30	30	60	80	80	30	70	60	40	30	–	50	5	60	100	60	50	–
